We go through two molecules from US20160280651A1, “COMPOUNDS THAT INDUCE ABA RESPONSES” (THE REGENTS OF THE UNIVERSITY OF CALIFORNIA, priority 2013, published 2016).

The term IC50 denotes the point on the concentration scale where inhibition reaches its midpoint.

Assay [1] relates to HAB1 with PYR/PYL receptors. Put plainly: Receptor-mediated PP2C inhibition assay with HAB1, Example 1. It is filed as biochemical, Arabidopsis. How it is done: (§1) FIG. 2A-FIG. 2C. Novel ABA agonists inhibit PPC2 activity through multiple PYR/PYL. (A) Chemical structure of naturally occurring (+)-ABA and selected ABA agonists. (B) and (C) HAB1, ABU, and ABI2 PP2C enzyme activity based ABA-agonist assays for various receptors in the presence or absence of 10 μM each test chemical.
(§2) FIG. 3A-FIG. 3B. (A) Receptor-mediated dose-dependent inhibition of PP2C enzyme activity by ABA agonists and analogs. (B) Observed compound IC50 values in enzymatic HAB1 PP2C-based ABA-agonist assays.
(§3) FIG. 4A-FIG. 4B. Quinabactin activates multiple ABA receptors. (A) Chemical structures of ABA, pyrabactin and quinabactin. (B) Chemical-dependent inhibition of HAB1 by ABA receptors. IC50 values (nM) were determined as described in the methods using 50 nM HAB1, 50 nM and multiple concentrations of compounds; full dose response curves are provided as in FIG. 3. (nd) correspond to receptors that were not produced as active proteins. The phylogenetic tree is a Neighbor-Joining tree made using the JTT distance matrix in MEGA5 (Tamura K, et al. (2011) MEGA5: Molecular Evolutionary Genetics Analysis Using Maximum Likelihood, Evolutionary Distance, and Maximum Parsimony Methods. Molecular Biology and Evolution 28(10):2731-2739).
(§4) HAB1 and PYL proteins were expressed and purified as described previously (Park S Y, et al. (2009) Abscisic Acid Inhibits Type 2C Protein Phosphatases via the PYR/PYL Family of START Proteins. Science 324(5930):1068-1071), with minor modifications. To obtain GST-HAB1, -ABI1 and -ABI2 fusion proteins, the HAB1 cDNA was cloned into pGex-2T whereas ABI1 and ABI2 cDNAs were cloned into the vector pGex-4T-1. Expression was conducted in BL21[DE3]pLysS host cells. Transformed cells were pre-cultured overnight, transferred to LB medium and cultured at 30° C. to culture A600 of ˜0.5. The culture was then cooled on ice and MnCl2 added to 4 mM and IPTG added to 0.3 mM. After 16 hours incubation at 15° C., cells were harvested and recombinant proteins were purified on glutathione agarose as described previously (Park S Y, et al. (2009). To obtain 6×His-PYL receptor fusion proteins, receptor cDNAs for all 13 ABA receptors were cloned into the vector pET28 and expressed and purified as described previously (Mosquna A, et al. (2011) Potent and selective activation of abscisic acid receptors in vivo by mutational stabilization of their agonist-bound conformation. PNAS 108(51):20838-20843); this yielded soluble and functional protein (assessed using receptor-mediated PP2C inhibition assays) for all receptors except PYL7, PYL11 and PYL12. These three receptors were therefore alternatively expressed as maltose binding (MBP) fusion proteins using the vector pMAL-c; expression of these constructs was carried out in BL21 [DE3]pLysS host strain with the same induction conditions used for GST-HAB1. Recombinant MBP-PYL fusion proteins were purified from sonicated and cleared lysate using amylose resin (New England Biolab, Inc.) using the manufacturers purification instructions. This effort yielded an active MBP-PYL11 fusion protein, but failed for PYL7 and PYL12.
(§5) PP2C activity assays using recombinant receptors and PP2Cs were carried out as follows: Purified proteins were pre-incubated in 80 μl assay buffer containing 10 mM MnCl2, 3 μg bovine serum albumin and 0.1% 2-mercaptoethanol with ABA or ABA agonist for 30 minutes at 22° C. Reactions were started by adding 20 μL of a reaction solution containing 156 mM Tris-OAc, pH 7.9, 330 mM KOAc and 5 mM 4-methylumbelliferyl phosphate after which fluorescence measurements were immediately collected using an excitation filter 355 nm and an emission filter 460 nm on a Wallac plate reader. Reactions contained 50 nM PP2C and 100 nM PYR/PYL proteins, respectively.

The target of assay [2] is T1, HAB1 with PYR/PYL receptors (Arabidopsis thaliana, UniProt Q9FLB1).
T1 construct: 6xHis (N); made in house; host or cells: E. coli BL21[DE3]pLysS
T1 sequence (Q9FLB1 1-203): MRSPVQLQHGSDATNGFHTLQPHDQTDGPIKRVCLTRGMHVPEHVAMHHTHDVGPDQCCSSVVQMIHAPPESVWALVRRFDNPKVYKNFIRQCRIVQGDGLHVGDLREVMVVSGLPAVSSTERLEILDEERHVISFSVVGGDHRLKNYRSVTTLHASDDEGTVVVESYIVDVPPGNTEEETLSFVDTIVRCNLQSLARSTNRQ
T1 sequence (Q9CAJ0 1-511 partner): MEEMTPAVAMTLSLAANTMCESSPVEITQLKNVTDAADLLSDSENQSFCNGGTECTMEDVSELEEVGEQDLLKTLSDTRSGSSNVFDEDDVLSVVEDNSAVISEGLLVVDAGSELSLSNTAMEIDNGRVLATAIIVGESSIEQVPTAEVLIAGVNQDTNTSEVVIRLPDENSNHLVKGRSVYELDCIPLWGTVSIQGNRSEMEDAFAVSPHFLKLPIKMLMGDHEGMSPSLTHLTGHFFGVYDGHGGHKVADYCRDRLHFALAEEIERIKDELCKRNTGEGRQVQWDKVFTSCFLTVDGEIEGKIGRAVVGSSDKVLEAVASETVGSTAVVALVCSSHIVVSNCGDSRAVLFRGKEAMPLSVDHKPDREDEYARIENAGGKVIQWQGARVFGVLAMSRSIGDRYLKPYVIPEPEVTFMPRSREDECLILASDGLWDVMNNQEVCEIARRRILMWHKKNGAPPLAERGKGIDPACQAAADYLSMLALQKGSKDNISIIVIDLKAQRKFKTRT
The assay is described as above. It counts as biochemical. Particulars: PYL5. How it is done:
as §1, §2, §3, §4, §5

Take `CCCN1C(=O)CCc2cc(NS(=O)(=O)Cc3ccc(C)cc3)ccc21` [LC66C6]: in assay [1] (10 μM, receptors PYR1, PYL1, PYL2, PYL3 and PYL5), the “PP2C inhibition of HAB1” value is on record as more than 70%. Moreover, in assay [1] (PYR1, PYLs 1-3 and PYL5), the “IC50 values of receptor activation” value was “submicromolar”. Besides, in assay [1] (PYR1 or PYL1), the “Agonist strength compared with ABA” value was “stronger PYR1 or PYL1 agonist than ABA”. In addition, the “Maximal PP2C inhibition compared with pyrabactin” value in assay [1] (all receptors tested) is listed as “higher than that observed with pyrabactin with all receptors tested”.

In the case of `O=S(=O)(NCc1ccccn1)c1ccc(Br)c2ccccc12` [pyrabactin, reference compound], in assay [2], the “PP2C inhibition at saturation” value is listed as approximately 40%. In addition, in assay [2] (read-out: IC50 of PYL5 activation), the IC50 worked out at 900 nM.
